“And” between values parts separate entries of the source, which are not always exact repeats. Equal values may be shown once.

Test [1] concerns SV-HUC-1 cell line. As to the kind of experiment: Caspase 3/7 activation flow cytometry assay. It is filed as cell-based, human. To be noted: SV-HUC-1, 24 h. The procedure:
(§1) Subsequently, to assess caspases 3/7 activation, the cells were incubated with medium alone or with increasing concentrations of compounds (Degrasyn, PR-619) in conditions similar to the previous test. Following cell collection, the cells were twice PBS-washed and stained in accordance with the manufacturer’s instructions. For active caspase 3/7 detection, CellEventCaspase-3/7 Green Detection Reagent Solution was added to the samples. The cells were then suspended 1 more time in the wash buffer after being washed twice. For flow cytometric analysis, a flow cytometers (FACS Calibur, Becton Dickinson, Biosciences, San Jose, CA, USA; CytoFlex, Beckman Coulter, CA, USA) were used, and CellQuest 3.lf (Becton Dickinson, San Jose, CA, USA) and CytExpert 2.4 (Beckman Coulter, CA, USA) software were used for data analysis. The presented results were obtained from three independent experiments.
A general note: A flow cytometer gives signals particle by particle.

Test [2] deals with T24 cell line. As to the kind of experiment: Caspase 3/7 activation flow cytometry assay. The test is classed as cell-based, human. As to conditions: T24, 24 h. The procedure:
as §1

The subject of test [3] is SV-HUC-1 cell line. Briefly: Annexin V-FITC/PI apoptosis flow cytometry. It is filed as cell-based, human. To be noted: SV-HUC-1, 24 h; for pro-apoptotic effect (number of apoptotic cells vs control): increasing concentrations up to approximately IC50. The procedure:
(§2) To assess the level of apoptosis induced by Degrasyn and PR-619, cells were seeded at a density of 1 × 10^5/mL in 96-well plates (TPP, Trasadingen, Switzerland) and incubated for 24 h with increasing concentrations of compounds. Cells were then collected, suspended in a binding buffer, and stained with Annexin V-FITC for 10 min at room temperature. Subsequently, PI was added, and flow cytometric analysis was immediately performed using a flow cytometers (FACS Calibur, Becton Dickinson, Biosciences, San Jose, CA, USA; CytoFlex, Beckman Coulter, CA, USA). CellQuest 3.lf. (Becton Dickinson, San Jose, CA, USA) and CytExpert 2.4 (Beckman Coulter, CA, USA) software were used for data analysis.

For test [4], the system named is T24 cell line. Briefly: Annexin V-FITC/PI apoptosis flow cytometry. The test is classed as cell-based, human. To be noted: T24, 24 h; for pro-apoptotic effect (number of apoptotic cells vs control): increasing concentrations up to approximately IC50. The method, then: as §2
In test [5] the test system is γH2AX in T24 cell line. Briefly: Western blot for γH2AX (DNA damage). It is filed as cell-based, human. As to conditions: T24, 24 h. The procedure: (§3) Western blot was performed to assess the expression of USP5, USP9X, and USP14 in analyzed cell lines. After 24 h of incubation with increasing concentrations of Degrasyn and PR-619, the expression of proteins involved in apoptosis (Bcl-2 and Bcl-xl) and a marker of DNA damage (γH2A.X) was also evaluated. Briefly, cells were rinsed with cold phosphate-buffered saline (PBS), suspended in lysis buffer (50 mM Tris-HCl pH 7.5, 100 mM NaCl, 1% NP-40, protease inhibitors set), and incubated for 20 min on ice. Subsequently, after centrifuging at 10,000 rpm at 4 °C for 12 min, sodium dodecyl sulfate (SDS) sample buffer was added to […]. After boiling for 5 min at 95 °C, the samples were subjected to SDS-polyacrylamide gel electrophoresis on 8–15% gel. For USP5, USP9X, USP14, γH2A.X, Bcl-2, and Bcl-xl expression analysis, transfers onto nitrocellulose membranes were performed using a Semidry Transfer Cell or wet transfer method (Bio-Rad, Hercules, CA, USA). After transfer, the membranes were blocked with 1% casein in TBS (or 3% BSA for γH2Ax) at room temperature for 1 h. […]

For test [6], the system named is USP5 protein in T24 cells. Briefly: Western blot for USP5 expression. The test is classed as cell-based, human. To be noted: T24, 24 h; Degrasyn 0.6, 1.25, 2.5 μM; PR-619 1.25, 2.5, 5 μM. The method, then:
as §3
In general terms: A western blot detects proteins with antibodies after separation by electrophoresis.

Test [7] has as its system Bcl-2 in all BC cell lines (T24, K9TCC-PU-NK, RDSVS-TCC-1). Briefly: Western blot for Bcl-2 expression. The test is classed as cell-based, human and canine. As to conditions: 24 h. The method, then:
as §3

Test [8] has as its system SV-HUC-1 cell line. Briefly: Ki-67 flow cytometry proliferation assay. It is filed as cell-based, human. As to conditions: SV-HUC-1, 24 h, p < 0.05. The procedure:
(§4) For the cell proliferation assay, cells were plated in 100 mm cell culture plates. When the cultures reached 60% confluence, the media were discarded from the wells and replaced with culture media only or media with added compounds (Degrasyn, PR-619) with increasing concentrations for 24 h. The growth medium was then removed from the wells, the cells were rinsed twice with PBS, and 0.25% trypsin-EDTA was added to detach the cells. After 5 min of incubation at 37 °C and 5% CO2, the fresh culture medium was added to inactivate the trypsin, and cells were collected in flow cytometry tubes. Cells were then labeled using the Ki-67 Proliferation Kit BD Pharmingen(BD Biosciences) according to the manufacturer’s instructions and analyzed using a flow cytometer (Cytoflex, Beckman Coulter). Unstained control cells were used for gating to determine the percentage of the proliferation of the Ki-67-positive cells in the samples. Percentages of proliferating (Ki-67 positive) cells were used to calculate the means ± SD for each cell line. The presented results were obtained from three independent experiments.

The subject of test [9] is T24 cell line. As to the kind of experiment: Ki-67 flow cytometry proliferation assay. The test is classed as cell-based, human. To be noted: T24, 24 h, p < 0.05. The procedure:
as §4

Test [10] deals with K9TCC-PU-NK cell line. Briefly: Ki-67 flow cytometry proliferation assay. It is filed as cell-based, canine. As to conditions: 24 h, p < 0.05. The method, then: as §4
The test system of test [11] is RDSVS-TCC1 cell line. Briefly: Ki-67 flow cytometry proliferation assay. It is filed as cell-based, canine. To be noted: RDSVS-TCC1, 24 h, p < 0.05. The method, then:
as §4

Test [12] relates to γH2AX in canine BC cell lines (K9TCC-PU-NK, RDSVS-TCC1). Briefly: Western blot for γH2AX (DNA damage). The test is classed as cell-based. As to conditions: 24 h. The method, then: as §3
Setting [13] is: 2.5 μM (highest concentration of Degrasyn).
Setting [14] is: only highest concentration 5 µM.
Setting [15] is: 5 μM (highest concentration of PR-619).
[16] abbreviates: highest concentrations of the drug.
Setting [17] is: only highest concentration 10 µM.

With `CCC[C@H](NC(=O)/C(C#N)=C/c1cccc(Br)n1)c1ccccc1` [Degrasyn], the “percentage of cells with active caspase 3/7” value in [1] (0.6 μM) is 5.8%; in [1] (1.25 μM) it was 7.6%; in test [1] (setting [13]) it was 22.4 ± 5.4% and 22.4%; in test [2] (0.6 μM) it was 12.5%; in test [2] (1.25 μM), 16.1%; in test [2] (setting [13]) it was 36.6 ± 0.7% and 36.6%. The “percentage of early and late apoptotic cells” value was determined as 24.1 ± 2.8% in test [3] (2.5 μM) and 32.2 ± 9.2% in test [4] (2.5 μM). Also, the “pro-apoptotic effect (number of apoptotic cells vs control)” value in [3] and in [4] was “significant increase” each time. The “expression of γH2AX” value in [5] (2.5 µM and 5 µM) is recorded as “high expression”; in test [12] (only 5 µM) it was “high expression”. Besides, the USP5 protein expression result in test [6] is reported as “clearly decreased”. Besides, the “expression of Bcl-2 protein” value in [7] (5 μM) is given as “slightly decreased”. Also, the “percentage of Ki-67 positive cells (as compared to control)” value in test [8] (setting [14]), in [10] (setting [14]) and in test [11] (setting [14]) was “significantly decreased” throughout. For the same molecule, in test [9] (2.5–5 µM), the “percentage of Ki-67 positive cells (as compared to the control)” value was “significantly decreased”.
Take `N#CSc1cc(SC#N)c(N)nc1N` [PR-619]: the “percentage of cells with active caspase 3/7” value was 8.9% in test [1] (1.25 μM); 10.6% in test [1] (setting [13]); 19.6 ± 1.8% and 19.6% in test [1] (setting [15]); 10.2% in test [2] (1.25 μM); 13.4% in test [2] (setting [13]); 16.1 ± 4.9% and 16.1% in test [2] (setting [15]). Besides, the figures for the “percentage of early and late apoptotic cells” value in test [3] (5 μM) and in [4] (5 μM) were 14.8 ± 5.8% and 9.8 ± 1.5%, respectively. The “pro-apoptotic effect (number of apoptotic cells vs control)” value in test [3] and in test [4] was “did not show a significant pro-apoptotic effect” in each case. The “amount of γH2AX” value in test [5] (setting [16]) and in test [12] (setting [16]) was “only a slight visible increase” throughout. Further, the USP5 protein expression entry in test [6] is “no visible effect”. In [7] (10 μM), the “expression of Bcl-2 protein” value is reported as “slightly decreased”. In addition, the “percentage of Ki-67 positive cells (as compared to control)” value in [8] (setting [17]), in test [10] (setting [17]) and in test [11] (setting [17]) was “significantly decreased” each time. Further, the “percentage of Ki-67 positive cells (as compared to the control)” value in [9] (5–10 µM) is “significantly decreased”.
